The target of assay [1] is T1, C1s (Homo sapiens, UniProt P09871).
T1 sequence (P09871 16-688): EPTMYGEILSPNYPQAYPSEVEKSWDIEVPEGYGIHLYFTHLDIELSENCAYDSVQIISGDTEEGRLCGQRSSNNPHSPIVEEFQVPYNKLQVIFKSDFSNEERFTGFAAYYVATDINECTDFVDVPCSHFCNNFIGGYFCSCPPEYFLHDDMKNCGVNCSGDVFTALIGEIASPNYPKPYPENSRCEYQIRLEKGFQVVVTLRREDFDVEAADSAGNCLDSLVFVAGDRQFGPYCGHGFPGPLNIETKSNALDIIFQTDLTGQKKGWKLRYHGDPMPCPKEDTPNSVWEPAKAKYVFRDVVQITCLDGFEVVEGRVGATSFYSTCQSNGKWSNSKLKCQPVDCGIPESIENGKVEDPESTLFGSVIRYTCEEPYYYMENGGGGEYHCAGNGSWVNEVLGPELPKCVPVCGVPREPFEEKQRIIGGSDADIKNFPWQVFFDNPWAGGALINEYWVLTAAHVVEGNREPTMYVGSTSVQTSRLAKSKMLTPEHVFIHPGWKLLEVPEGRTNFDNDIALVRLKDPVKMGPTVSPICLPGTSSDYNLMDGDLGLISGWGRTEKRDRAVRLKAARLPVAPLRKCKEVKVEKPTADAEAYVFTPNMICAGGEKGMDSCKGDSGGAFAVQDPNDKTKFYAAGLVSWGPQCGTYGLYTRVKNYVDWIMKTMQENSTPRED
As to the kind of experiment: C1s esterolytic inhibition assay (Z-Lys-SBzl substrate). The following applies: Z-Lys-SBzl 1.29 mM, C1s 3 to 13 nM; read-out: Cls (Serine Protease Inhibitory Data, IC50). It is filed as biochemical. As to the method:
(§1) The compounds to be tested were dissolved in a stock solution of DMSO at 10.0 or 100 mM. A portion of this stock solution was added to assay buffer in a final volume of 100 μL containing the enzyme of interest. Controls included buffer alone and enzyme solutions to which DMSO was added. Substrate was added to the reaction wells immediately or after incubation at room temperature. The reaction rates were measured spectrophotometrically by the generation of product at 405 nm for 200 sec. Background absorbance at 690 nm was measured and subtracted from the absorbance at 405 nm for each well.
(§2) The reaction rate for enzyme alone was compared to the rate of enzyme in the presence of inhibitor and the percent inhibition was calculated as shown below:
(§3) Percent Inhibition=[Rate without inhibitor−Rate with inhibitor)/(Rate without inhibitor)]×100
(§4) Compounds in the examples were tested a minimum of three times.
C1s esterolytic activity was assayed using a modification of the technique originally described by Kam using Z-Lys-SBzl, 1.29 mM as substrate and C1s at 3 to 13 nM.

Assay [2] addresses Thrombin (Homo sapiens, UniProt P00734). As to the kind of experiment: Thrombin inhibition assay (N-Benzoyl-Phe-Val-Arg-p-nitroanilide substrate). The class given is biochemical. The following applies: thrombin 12.5 U/ml, pH 7.5; read-out: Thrombin (Serine Protease Inhibitory Data, IC50). As to the method:
as §1, §2, §3, §4
(§5) Thrombin was assayed at 12.5 U/ml using 0.37 mM N-Benzoyl-Phe-Val-Arg-p-nitroanilide (Svendsen, L.; Blomback B.; Blomback, M.; Olsson, P. I. Substrate for determination of trypsin, thrombin and thrombin-like enzymes. Folia Haematol. 1972, 98, 446-454.) as the substrate in 100 mM HEPES, 10 mM CaCl2, 10% DMSO, pH 7.5. Factor Xa, 0.5 U/mL, was assayed in 50 mM HEPES, 150 mM NaCl, 10 mM CaCl2, pH 8.0 using Chromozyme X, 0.17 mM, as the substrate. Plasmin (0.004 units/mL), factor XIIa ([…]) and kallikrein (0.02 units/mL were assayed using modifications of the techniques originally described by McRae, et al. (Biochemistry. 1981, 20, 7196-7206). The assays were run in 200 mM triethanolamine, pH 7.8 and 100 mM Tris-HCl, 100 mM EDTA, […] using Z-Lys-SBzl, 0.13 mM and […], 0.16 mM, as substrates, respectively.

The target of assay [3] is Factor Xa (Homo sapiens, UniProt P00742). As to the kind of experiment: Factor Xa inhibition assay (Chromozyme X substrate). To be noted: Factor Xa 0.5 U/mL, pH 8.0; read-out: Xa (Serine Protease Inhibitory Data, IC50). It is filed as biochemical. As to the method:
as §1, §2, §3, §4, §5

Assay [4] concerns the target kallikrein (Homo sapiens, UniProt P03952). As to the kind of experiment: Kallikrein inhibition assay (thioester substrate). The class given is biochemical. The following applies: kallikrein 0.02 units/mL; read-out: Kallikrein (Serine Protease Inhibitory Data, IC50). How it is done: as §1, §2, §3, §4, §5
Assay [5] deals with T2, factor XIIa (Homo sapiens, UniProt P00748).
T2 sequence (P00748 373-615 limits assumed): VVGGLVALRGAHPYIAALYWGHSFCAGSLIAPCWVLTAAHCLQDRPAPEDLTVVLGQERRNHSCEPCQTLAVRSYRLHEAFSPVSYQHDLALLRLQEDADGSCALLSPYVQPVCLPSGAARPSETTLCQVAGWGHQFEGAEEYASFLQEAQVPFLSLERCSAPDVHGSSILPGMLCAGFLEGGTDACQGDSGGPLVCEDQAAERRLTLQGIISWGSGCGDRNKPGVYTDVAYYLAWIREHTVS
Put plainly: Factor XIIa inhibition assay (thioester substrate). It is filed as biochemical. To be noted: read-out: XIIa (Serine Protease Inhibitory Data, IC50). How it is done:
as §1, §2, §3, §4, §5

In assay [6] the target is Plasmin (Homo sapiens, UniProt P00747). As to the kind of experiment: Plasmin inhibition assay (thioester substrate). The class given is biochemical. The following applies: plasmin 0.004 units/mL; read-out: Plasmin (Serine Protease Inhibitory Data, IC50). How it is done:
as §1, §2, §3, §4, §5

Assay [7] deals with T3, Factor D (Homo sapiens, UniProt P00746). As to the kind of experiment: Factor D esterolytic inhibition assay (Z-Lys-SBzl substrate). It is filed as biochemical. Details: Factor D was purified from the urine of a patient with Fanconi syndrome by ion exchange chromatography; from tissue; host or cells: urine of a patient with Fanconi syndrome. To be noted: Z-Lys-SBzl 1.29 mM, pH 7.5, 10% DMSO; read-out: Factor D (Serine Protease Inhibitory Data, IC50).
Description: A modification of the procedure of Volanakis (Volankis, J. E.; Barnum, S. R.; Kilpatrick, J. M. Purification and properties of human factor D. Methods in Enzymol. 1993, 223, 82-97) for purification of Factor D was utilized as described by Yamauchi (Yamauchi, Y.; Stevens, J. W.; Macon, K. J.; Volanakis, J. E. Recombinant and native zymogen forms of human complement factor D. J. Immunol. 1994, 152, 3645-3653. Briefly, Factor D was purified from the urine of a patient with Fanconi syndrome by ion exchange chromatography using BioRex 70 and two rounds of ion-exchange chromatography in a Pharmacia FPLC system using a HR5/5 Mono S column.
as §1, §2, §3, §4
An established esterolytic assay for the measurement of Factor D activity and inhibition of Factor D activity was used (Kam, C. M.; McRae, B. J.; Harper, J. W.; Niemann, M. A.; Volanakis, J. E.; Powers, J. C. Human complement proteins D, C2, and B Active site mapping with peptide thioester substrates. J Biol. Chem. 1987, 262, 3444-3451). […] Hydrolysis of this compound by Factor D liberated a free sulfhydryl group which is then reacted with 5,5′-dithiobis(2nitrobenzoic acid) producing an intense yellow color (Habeeb, A. F. S. A. Reaction of protein sulfhydryl groups with Ellman's Reagent. Methods in Enzymol. 1976, 25, 457-464.). The assays were performed in 96 well microtiter plates and rates of hydrolysis were monitored at 405 nm in a Anthos Labtec HT2 plate reader. Hydrolysis rates were reported as change in mOD/min. The assay was conducted in 100 mM HEPES, 500 mM NaCl, pH 7.5 containing 10% DMSO in a final volume of 200 μL per well.

The target of assay [8] is Factor B (Homo sapiens, UniProt P00751). The following applies: Ikari, N. et al. Immunology 49: 685-691, 1983; cited from earlier work.
The target in assay [9] is T3, Factor D. The following applies: Inagi, R et al, Nephron 66: 285-290, 1994; cited from earlier work.

Where two headings read alike, the source gives them in different places.

Chain of Factor Xa (P00742 235-488 limits assumed): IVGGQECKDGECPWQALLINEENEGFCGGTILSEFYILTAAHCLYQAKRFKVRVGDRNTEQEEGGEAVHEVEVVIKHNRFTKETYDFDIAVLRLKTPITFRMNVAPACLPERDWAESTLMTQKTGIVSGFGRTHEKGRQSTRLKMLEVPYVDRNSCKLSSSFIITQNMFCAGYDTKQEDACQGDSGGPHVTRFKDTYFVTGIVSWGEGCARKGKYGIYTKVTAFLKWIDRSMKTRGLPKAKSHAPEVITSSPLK
Chain of Factor Xa (P00742 41-179 partner limits assumed): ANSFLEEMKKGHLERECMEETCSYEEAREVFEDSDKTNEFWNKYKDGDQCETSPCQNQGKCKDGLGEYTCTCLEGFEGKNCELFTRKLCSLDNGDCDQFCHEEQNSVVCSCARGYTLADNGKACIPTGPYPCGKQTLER
Chain of kallikrein (P03952 whole entry): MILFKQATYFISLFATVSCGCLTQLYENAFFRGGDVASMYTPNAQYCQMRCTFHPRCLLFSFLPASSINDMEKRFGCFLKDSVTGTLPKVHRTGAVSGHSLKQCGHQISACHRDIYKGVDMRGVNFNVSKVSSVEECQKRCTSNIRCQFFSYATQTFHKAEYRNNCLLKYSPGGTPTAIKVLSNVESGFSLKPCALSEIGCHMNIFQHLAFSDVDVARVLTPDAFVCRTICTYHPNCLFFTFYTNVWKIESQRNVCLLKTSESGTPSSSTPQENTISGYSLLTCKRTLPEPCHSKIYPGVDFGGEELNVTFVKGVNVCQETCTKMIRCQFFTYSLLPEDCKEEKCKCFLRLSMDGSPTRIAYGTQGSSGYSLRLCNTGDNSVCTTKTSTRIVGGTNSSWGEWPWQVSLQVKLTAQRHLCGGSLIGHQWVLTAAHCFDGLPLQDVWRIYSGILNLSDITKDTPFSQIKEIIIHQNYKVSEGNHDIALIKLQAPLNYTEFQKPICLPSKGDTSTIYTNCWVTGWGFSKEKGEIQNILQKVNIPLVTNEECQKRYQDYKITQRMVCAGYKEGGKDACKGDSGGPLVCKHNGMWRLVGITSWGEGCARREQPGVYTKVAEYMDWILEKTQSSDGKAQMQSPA
Chain of Plasmin (P00747 581-810 limits assumed, species assumed): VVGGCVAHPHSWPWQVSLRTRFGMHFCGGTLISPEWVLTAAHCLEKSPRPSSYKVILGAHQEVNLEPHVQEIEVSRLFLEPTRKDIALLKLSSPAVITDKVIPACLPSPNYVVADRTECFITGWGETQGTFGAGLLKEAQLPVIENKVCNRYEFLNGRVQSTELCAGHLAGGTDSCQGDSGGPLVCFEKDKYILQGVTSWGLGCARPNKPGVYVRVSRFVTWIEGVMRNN
Chain of Plasmin (P00747 97-580 partner limits assumed, species assumed): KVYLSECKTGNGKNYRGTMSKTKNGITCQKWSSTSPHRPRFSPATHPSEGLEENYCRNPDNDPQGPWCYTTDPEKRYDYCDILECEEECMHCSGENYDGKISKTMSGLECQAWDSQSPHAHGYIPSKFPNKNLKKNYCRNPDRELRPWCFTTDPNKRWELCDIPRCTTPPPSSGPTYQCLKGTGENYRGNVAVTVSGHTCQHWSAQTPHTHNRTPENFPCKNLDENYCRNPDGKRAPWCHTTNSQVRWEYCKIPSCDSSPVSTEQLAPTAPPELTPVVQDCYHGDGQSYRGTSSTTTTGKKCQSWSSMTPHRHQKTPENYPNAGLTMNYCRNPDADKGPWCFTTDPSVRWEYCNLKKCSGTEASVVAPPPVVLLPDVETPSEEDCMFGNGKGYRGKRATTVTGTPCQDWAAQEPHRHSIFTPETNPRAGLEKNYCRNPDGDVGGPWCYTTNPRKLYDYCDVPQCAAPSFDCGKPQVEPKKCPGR
T3 sequence (P00746 26-253): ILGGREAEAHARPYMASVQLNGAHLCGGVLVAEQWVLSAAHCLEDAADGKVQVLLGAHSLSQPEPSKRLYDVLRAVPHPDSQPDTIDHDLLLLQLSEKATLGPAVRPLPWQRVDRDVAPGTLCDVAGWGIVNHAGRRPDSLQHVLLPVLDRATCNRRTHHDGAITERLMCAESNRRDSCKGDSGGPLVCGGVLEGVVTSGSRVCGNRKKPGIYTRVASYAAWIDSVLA
Chain of Factor B (P00751 26-764): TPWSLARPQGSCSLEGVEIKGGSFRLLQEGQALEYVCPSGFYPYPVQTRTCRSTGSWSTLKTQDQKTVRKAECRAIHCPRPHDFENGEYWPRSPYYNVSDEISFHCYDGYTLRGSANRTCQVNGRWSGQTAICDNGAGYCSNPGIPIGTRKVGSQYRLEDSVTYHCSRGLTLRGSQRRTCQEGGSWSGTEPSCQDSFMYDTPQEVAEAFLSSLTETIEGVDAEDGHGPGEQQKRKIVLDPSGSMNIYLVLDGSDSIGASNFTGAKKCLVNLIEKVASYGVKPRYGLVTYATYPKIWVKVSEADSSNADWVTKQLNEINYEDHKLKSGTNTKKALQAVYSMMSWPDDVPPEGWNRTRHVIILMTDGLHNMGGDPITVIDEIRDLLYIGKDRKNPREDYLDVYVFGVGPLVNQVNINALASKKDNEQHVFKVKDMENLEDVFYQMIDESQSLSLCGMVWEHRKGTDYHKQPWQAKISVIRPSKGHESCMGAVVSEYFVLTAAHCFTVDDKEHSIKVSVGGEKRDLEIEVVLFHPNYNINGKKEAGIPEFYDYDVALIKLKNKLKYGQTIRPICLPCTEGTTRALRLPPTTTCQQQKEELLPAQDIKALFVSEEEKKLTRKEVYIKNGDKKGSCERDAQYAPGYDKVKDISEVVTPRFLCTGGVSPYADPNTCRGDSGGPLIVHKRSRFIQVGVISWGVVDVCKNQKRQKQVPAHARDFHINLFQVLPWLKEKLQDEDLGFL

Turning to `N=C(N)c1nc2ccc(OC(=O)c3cccs3)cc2s1` [Example 14], the IC50 in assay [1] was found to be 2 nM; in [2], 18 nM; in assay [3], 12 nM; in assay [4] it was 2 nM; in assay [5], 5 nM; in [6], 6 nM. Also, in [7], the IC50 came out at 250 nM.

With `N=C(N)c1nc2ccc(OC(=O)c3ccoc3)cc2s1` [Example 15], the IC50 turned out to be 2 nM in assay [1]; 15 nM in [2]; 22 nM in assay [3]; 5 nM in [4]; 6 nM in assay [5]; 15 nM in assay [6]. Also, in [7], the half-inhibitory concentration (IC50) was 286 nM.

Take `N=C(N)c1nc2ccc(OC(=O)c3ccsc3)cc2s1` [Example 16]: the concentration for half-maximal inhibition (IC50) was 2.5 nM in assay [1]; 42 nM in assay [2]; 31 nM in [3]; 2.6 nM in assay [4]; 10 nM in assay [5]; 21 nM in assay [6]. Further, in assay [7], the concentration for half-maximal inhibition (IC50) amounted to 205 nM.

With `N=C(N)C1=Cc2ccc(OC(=O)c3ccco3)cc2OC1` [Example 18, 3-amidino-7-(2H-1-benzopyran) 2-furancarboxylate methanesulfonate], the concentration for half-maximal inhibition (IC50) was found to be 2.9 nM in assay [1]; 51 nM in assay [2]; 3.9 nM in assay [3]; 3.6 nM in assay [4]; 6.1 nM in assay [5]; 1.5 nM in assay [6]. Further, in [7], the IC50 amounted to 347 nM.

In the case of `CC/C=C/C(=O)Oc1ccc2cc(C(=N)N)sc2c1` [Example 20], the IC50 in [1] worked out at 6 nM; in assay [2], 47 nM; in assay [3] it was 5 nM; in assay [4] it was 12 nM; in [5] it was 27 nM; in assay [6], 6 nM. Besides, the IC50 in assay [7] was 190 nM.

Turning to `N=C(N)c1ccc2cc(OC(=O)c3ccc(N=C(N)N)cc3)ccc2c1` [nafamostat, 6′-amidino-2-naphthyl-p-guanidinobenzoate, reference compound], the half-inhibitory concentration (IC50) in [1] was 22 nM; in [2], 678 nM; in assay [3] it was 1010 nM; in assay [4] it was 12 nM; in assay [5] it was 114 nM; in assay [8], 60000 nM. Also, the IC50 is 25000 nM in assay [9] and 11000 nM in assay [7].

The term IC50 denotes the concentration at which inhibition is half-maximal.
